In the test the test system is chick chorioallantoic membrane (CAM). The test is described as follows: CAM cell proliferation assay (DNA synthesis, methyl-[3H]thymidine), substance alone. In kind it is in vivo. Here is the method:
Cell proliferation was measured using the chick chorioallantoic membrane (CAM) model as described previously (4, 29, 30).
Briefly, on day zero, fertile hens' eggs, are placed in an egg incubator 37.5° C. with pointed ends facing downwards. On day 3, using a 2 ml syringe with a 21G needle, 2 ml of albumen is removed and the eggs returned to the incubator. On day 4, each egg is punctured by a needle at the blunt end into the air space. A square of shell is then removed, causing the egg contents to drop into the space left by collapse of the air space at the end of the egg and the withdrawal of albumen. The volume of the space above the dropped CAM is approximately 7 ml. The square opening in the shell is covered with Sellotape (RTM). The eggs then have to be kept level in the incubator without tilting. On day 10, the surviving eggs are organised into groups of preferably no less than 10. Test and control samples are prepared and each egg receives 0.3 ml of sample injected through the Sellotape (RTM) onto the upper surface of the CAM.
The technique of removal of each CAM is simple but crucial to the rationale of achieving results expressed as total DPM per CAM. […]
The assay used is based on quantitative measurement of DNA synthesis in the CAM after exposure to control and test substances 18 h after application in liquid form to the whole “dropped” area of each CAM (4,29). […]

“Also recorded” adds a separate entry of the source.

As for LHADPDLGVLCPTGC [WTM34], the “maximum inhibition in the CAM assay” value (peptide alone, highest dose tested (20 micromoles)) stood at 60%. Besides, the “effect on cell proliferation relative to control” value (substance alone, across the range of concentrations tested) is “inherent inhibitory effect on cell stimulation; also recorded: inhibits cell proliferation and vessel formation in the CAM; also recorded: inhibitory effects”.

These data come from patent publication US20040132969A1, “Antibodies, peptides, analogs and uses thereof” (priority 2000, published 2004).
